Assay results published in US20240197700A1, “Methods and Compositions for Treating Lysosomal Storage Disorders” (Sanford Health, priority 2021, published 2024).
Entries after “also recorded” stand apart in the source; their conditions may differ.

Test system: Cln3^Δex7/8 mice
Assay: Autofluorescent storage material (ASM) in brain of Cln3^Δex7/8 mice
Format: in vivo, mouse
Settings: 16 weeks; for auto florescent storage material: LM11A-31 0.6 mg/mL in drinking water
Method: FIG. 16. Effects of treatment with LM11A-31 on auto florescent storage material. […] Upon sacrifice, one hemisphere of brain was sectioned at 50 microns on a vibratome; DAB staining immunohistochemistry was then performed using anti-GFAP (Dako, Z0334; 1:5000), anti-CD68 (AbD Serotec, MCA1957; 1:2000), anti-rabbit biotinylated (Vector Labs. BA-1000 1:1000), and anti-rat (Vector Labs, BA-9400 1:1000). Sections were imaged and analyzed using an Aperio Digital Pathology Slide Scanner (AT2) and associated software. The flash-frozen brain was sectioned into 16 μm slices and placed on slides. Slides were post-fixed for 20 minutes in chilled 10% neutral buffered formalin (NBF) and underwent serial ethanol dehydration. To quantify accumulation of autofluorescent storage material, DAPI was applied to slides and coverslipped with aqueous mounting media (Dako Faramount, Agilent, S302580-2). Sections were imaged using a Nikon NiE microscope and associated software. […] Nested one-way ANOVA. Mean±S.E.M. Sidak's multiple comparisons test. Compared to the wild type vehicle treated group. #p<0.05, ##p<0.01, ###p<0.001, ####p<0.0001. Compared to mutant vehicle treated group. *p<0.05, **p<0.01, ***p<0.001, ****p<0.0001. Scale bar=100 μm.
Since LM11A-31 reduced lysosomal pathology and increased lysosomal function in cell models of diverse lysosomal storage disorders, we asked whether treatment with LM11A-31 could reduce histopathological markers of disease severity in animal models of CLN3-Batten disease. […] Sections were imaged and analyzed using an Aperio Digital Pathology Slide Scanner (AT2) and associated software. […] To quantify accumulation of autofluorescent storage material, DAPI was applied to slides and coverslipped with aqueous mounting media (Dako Faramount, Agilent, S302580-2). […]
Specific experimental details are included in figure legends. […] Body weight was measured at 4, 6, 8, 12, and 16 weeks of age. […]

semaglutide
accumulation of autofluorescent storage material (ASM) (semaglutide 2.571 μg/mouse, 25.71 μg/mouse s.c. three times a week, S1BF, CA3, VPM/VPL): had no significant effect

CC[C@H](C)[C@H](N)C(=O)NCCN1CCOCC1 [LM11A-31, N-[2-(morpholin-4-yl)ethyl]-L-isoleucinamide]
auto florescent storage material (S1BF, CA3, or motor cortex): did not decrease
auto florescent storage material (VPM/VPL and visual cortex): reduced ASM to levels that were not statistically distinguishable from wild type; also recorded: slight decrease
